Assay results published in US4206215A, “Antimicrobial bis-[4-(substituted-amino)-1-pyridinium]alkanes” (Sterling Drug Inc., priority 1977, dated 1980).

What was measured:
[1] = test system: E. coli AB1932-1; test: In vitro antibacterial activity, MIC (modified Autotiter method); type: cell-based, Escherichia coli; details: Escherichia coli, AB19321, 20 h, 18-20 hours at 37° C.; read-out: MIC E. coli AB1932-1
Outline: (§1)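 Final drug range: 500 → 0.06 mcg./ml., twofold decrements, in inoculated semisynthetic glucose medium. Dilution performed by Autotiter transfer loops in sterile water from a 1,000 mcg./ml. compound solution.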

[2] = test system: E. coli 100/B22; test: as above; type: cell-based, Escherichia coli; details: Escherichia coli, 100/B22, 20 h, 18-20 hours at 37° C.; read-out: MIC E. coli 100/B22
Outline: as §1

[3] = test system: E. coli Vogel; test: as above; type: cell-based, Escherichia coli; details: Escherichia coli, 20 h, 18-20 hours at 37° C.; read-out: MIC E. coli Vogel
Outline: as §1

[4] = test system: A. niger 16404; test: In vitro antifungal activity, MIC (modified Autotiter method); type: cell-based, Aspergillus niger; details: 18-20 hours at 37° C.; for MIC: Aspergillus niger, 16404, 20 h, read-out: MIC A. niger 16404
Outline: as §1

[5] = test system: Herpes simplex type 2 virus; test: Virucidal activity in vitro (plaque inhibition test); type: cell-based; details: 2 mg. of test compound on growth medium
Description: Virucidal activity of representative examples against Herpes simplex type 2 virus was determined in vitro employing a procedure similar to the plaque inhibition test for detection of specific inhibitors of DNA-containing viruses published by E. C. Herrmann, Jr., Proc. Soc. Exp. Biol. Med. 107, 142 (1961) wherein 2 mg. of the test compound was placed on the surface of the growth medium.

[6] = test system: Ps. aerug. MGH-2; test: In vitro antibacterial activity, MIC (modified Autotiter method); type: cell-based, Pseudomonas aeruginosa; details: Pseudomonas aeruginosa, 20 h, 18-20 hours at 37° C.; read-out: MIC Ps. aerug. MGH-2
Outline: as §1

[7] = test system: K. pneum. 39645; test: as above; type: cell-based, Klebsiella pneumoniae; details: Klebsiella pneumoniae, 20 h, 18-20 hours at 37° C.; read-out: MIC K. pneum. 39645
Outline: as §1

[8] = test system: T. menta. 9129; test: In vitro antifungal activity, MIC (modified Autotiter method); type: cell-based, Trichophyton mentagrophytes; details: Trichophyton mentagrophytes, 20 h, 18-20 hours at 37° C.; read-out: MIC T. menta. 9129
Outline: as §1

[9] = test system: C. albicans 10231; test: as above; type: cell-based, Candida albicans; details: Candida albicans, 10231, 20 h, 18-20 hours at 37° C.; read-out: MIC C. albicans 10231
Outline: as §1

[10] = test system: C. albicans Wisc.; test: as above; type: cell-based, Candida albicans; details: Candida albicans, 20 h, 18-20 hours at 37° C.; read-out: MIC C. albicans Wisc.
Outline: as §1

[11] = test system: P. mirab. MGH-1; test: In vitro antibacterial activity, MIC (modified Autotiter method); type: cell-based, Proteus mirabilis; details: Proteus mirabilis, 20 h, 18-20 hours at 37° C.; read-out: MIC P. mirab. MGH-1
Outline: as §1

[12] = test system: S. Aureus Smith; test: as above; type: cell-based, Staphylococcus aureus; details: Staphylococcus aureus, 20 h, 18-20 hours at 37° C.; read-out: MIC S. Aureus Smith
Outline: as §1

[13] = test system: S. pyogen. C203; test: as above; type: cell-based, Streptococcus pyogenes; details: 18-20 hours at 37° C.; for MIC: Streptococcus pyogenes, 20 h, read-out: MIC S. pyogen. C203
Outline: as §1

| SMILES | MIC [1] [µg/mL] | MIC [2] [µg/mL] | MIC [3] [µg/mL] | MIC A. niger 16404 [4] [µg/mL] | Virucidal activity against Herpes simplex type 2 virus [5] | MIC [6] [µg/mL] | MIC [7] [µg/mL] | MIC [8] [µg/mL] | MIC [9] [µg/mL] | MIC [10] [µg/mL] | MIC [11] [µg/mL] | MIC [12] [µg/mL] | MIC S. pyogen. C203 [13] [µg/mL] | MIC [4] [µg/mL] | MIC [13] [µg/mL] |
| --- | --- | --- | --- | --- | --- | --- | --- | --- | --- | --- | --- | --- | --- | --- | --- |
| CCCCCCCNc1cc[n+](CCCCCC[n+]2ccc(NCCCCCCC)cc2)cc1 [Example 61, 1,6-bis-[4-(heptylamino)-1-pyridinium]hexane dibromide] | 1.6 | 1.6 | 3.1 | 25 | active | 125 | 6.3 | 3.13 | 6.25 | 6.25 | > 250 | 0.2 | 0.4 | – | – |
| CCCCCCCNc1cc[n+](CCCCCCC[n+]2ccc(NCCCCCCC)cc2)cc1 [Example 21, 1,7-bis-[4-(heptylamino)-1-pyridinium]heptane dibromide] | 1.95 | 1.95 | 1.95 | – | active | 125 | 3.9 | 3.9 | 3.9 | 3.9 | 125 | 0.24 | – | 15.6 | 0.98 |
| CCCCC(CC)CNc1cc[n+](CCCCCCC[n+]2ccc(NCC(CC)CCCC)cc2)cc1 (centres unmarked) [Example 55, 1,7-bis-[4-(2-ethylhexylamino)-1-pyridinium]heptane dibromide] | 3.9 | 3.9 | 3.9 | – | active | 125 | 7.8 | 1.95 | 7.8 | 7.8 | > 125 | 0.49 | – | 15.6 | 0.49 |
| CCCCC(CC)CNc1cc[n+](CCCCCC[n+]2ccc(NCC(CC)CCCC)cc2)cc1 (centres unmarked) [Example 54, 1,6-bis-[4-(2-ethylhexylamino)-1-pyridinium]hexane dibromide] | 1.95 | 3.9 | 7.8 | – | active | > 250 | 125 | 1.95 | 7.8 | 7.8 | > 125 | 0.49 | – | 15.6 | 0.625 |
| c1c[n+](CCCCCCCCC[n+]2ccc(NC3CCCCC3)cc2)ccc1NC1CCCCC1 [Example 39, 1,9-bis-[4-(cyclohexylamino)-1-pyridinium]nonane dibromide] | 31.3 | 31.3 | 31.3 | – | inactive | 500 | 125 | 3.9 | 15.6 | 15.6 | > 500 | 0.98 | – | 7.8 | 3.9 |
| c1c[n+](CCCCC[n+]2ccc(NC3CCCCC3)cc2)ccc1NC1CCCCC1 [Example 35, 1,5-bis-[4-(cyclohexylamino)-1-pyridinium]pentane dibromide] | > 500 | > 500 | > 500 | – | active | > 500 | > 500 | 125 | 500 | 500 | > 500 | 125 | – | 500 | 15.6 |
| CCCCCCCNc1cc[n+](CCCCC[n+]2ccc(NCCCCCCC)cc2)cc1 [Example 60, 1,5-bis-[4-(heptylamino)-1-pyridinium]pentane dibromide] | 3.9 | 7.8 | 31.3 | – | active | 125 | 31.3 | 7.8 | 15.6 | 15.6 | > 125 | 0.49 | – | 15.6 | 1.95 |
| CCCCCCNc1cc[n+](CCCC[n+]2ccc(NCCCCCC)cc2)cc1 [Example 16, 1,4-bis-[4-(hexylamino)-1-pyridinium]butane dibromide] | 62.5 | 125 | 125 | – | inactive | > 250 | > 125 | 15.6 | 125 | 125 | > 125 | 7.8 | – | 125 | 1.95 |
| c1c[n+](CCCCCCCCCC[n+]2ccc(NC3CCCCC3)cc2)ccc1NC1CCCCC1 [Example 40, 1,10-bis-[4-(cyclohexylamino)-1-pyridinium]decane dibromide] | 7.8 | 15.6 | 15.6 | – | inactive | > 125 | > 125 | 1.95 | 3.9 | 7.8 | > 125 | 0.24 | – | 7.8 | 3.9 |
| c1c[n+](CCCC[n+]2ccc(NC3CCCCC3)cc2)ccc1NC1CCCCC1 [Example 34, 1,4-bis-[4-(cyclohexylamino)-1-pyridinium]butane dibromide] | 125 | 125 | 125 | – | inactive | > 500 | > 500 | 125 | 500 | 500 | > 500 | 125 | – | 500 | 31.3 |
| CCCCC(CC)CNc1cc[n+](CCCC[n+]2ccc(NCC(CC)CCCC)cc2)cc1 (centres unmarked) [Example 63, 1,4-bis-[4-(2-ethylhexylamino)-1-pyridinium]butane dibromide] | 7.8 | 31.3 | 62.5 | – | active | 125 | > 125 | 15.6 | 31.3 | 31.3 | > 125 | 0.98 | – | 31.3 | 1.25 |
